Paper PMC6437697 (Journal of Medicinal Chemistry, 2019)

Columns and labels:
Test in all cases: KINOMEscan
Format in all cases: binding
Settings in all cases: read-out: % control activity remaining
[1] = target: T1, ROS1 (Homo sapiens, UniProt P08922)
T1 construct: purchased Eurofins DiscoverX KINOMEscan

[2] = target: T2, EPHB2 (Homo sapiens, UniProt P29323)
T2 construct: purchased Eurofins DiscoverX KINOMEscan
T2 sequence (P29323 19-1055): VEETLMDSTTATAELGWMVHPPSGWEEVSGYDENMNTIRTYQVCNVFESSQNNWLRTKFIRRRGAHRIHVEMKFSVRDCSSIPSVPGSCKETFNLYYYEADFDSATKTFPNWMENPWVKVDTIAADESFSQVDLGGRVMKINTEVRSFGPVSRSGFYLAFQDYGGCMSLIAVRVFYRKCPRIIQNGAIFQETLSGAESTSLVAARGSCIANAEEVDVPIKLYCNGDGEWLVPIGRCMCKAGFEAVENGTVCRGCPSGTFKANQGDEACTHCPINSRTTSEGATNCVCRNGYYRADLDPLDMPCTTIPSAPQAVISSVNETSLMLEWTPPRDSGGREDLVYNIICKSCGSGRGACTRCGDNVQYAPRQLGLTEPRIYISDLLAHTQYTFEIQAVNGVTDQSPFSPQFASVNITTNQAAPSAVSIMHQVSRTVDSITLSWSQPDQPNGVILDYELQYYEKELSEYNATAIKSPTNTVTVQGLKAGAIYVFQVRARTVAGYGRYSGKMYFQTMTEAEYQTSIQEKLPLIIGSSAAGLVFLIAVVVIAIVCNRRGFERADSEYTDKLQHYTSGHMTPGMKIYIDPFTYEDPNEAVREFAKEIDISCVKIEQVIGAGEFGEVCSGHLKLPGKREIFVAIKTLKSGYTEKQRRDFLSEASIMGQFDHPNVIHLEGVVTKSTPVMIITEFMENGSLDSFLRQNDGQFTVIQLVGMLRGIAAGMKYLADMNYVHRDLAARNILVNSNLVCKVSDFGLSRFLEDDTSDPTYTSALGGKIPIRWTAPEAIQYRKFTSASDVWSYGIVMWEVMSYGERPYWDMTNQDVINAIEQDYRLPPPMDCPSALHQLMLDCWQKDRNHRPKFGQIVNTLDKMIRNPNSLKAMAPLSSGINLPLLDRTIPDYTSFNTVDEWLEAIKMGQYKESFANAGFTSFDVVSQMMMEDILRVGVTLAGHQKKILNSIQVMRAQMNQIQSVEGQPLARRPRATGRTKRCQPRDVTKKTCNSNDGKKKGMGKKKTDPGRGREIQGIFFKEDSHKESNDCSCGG

[3] = target: T3, YSK4 (Homo sapiens, UniProt Q56UN5)
T3 construct: purchased Eurofins DiscoverX KINOMEscan
T3 sequence (Q56UN5 1-1328): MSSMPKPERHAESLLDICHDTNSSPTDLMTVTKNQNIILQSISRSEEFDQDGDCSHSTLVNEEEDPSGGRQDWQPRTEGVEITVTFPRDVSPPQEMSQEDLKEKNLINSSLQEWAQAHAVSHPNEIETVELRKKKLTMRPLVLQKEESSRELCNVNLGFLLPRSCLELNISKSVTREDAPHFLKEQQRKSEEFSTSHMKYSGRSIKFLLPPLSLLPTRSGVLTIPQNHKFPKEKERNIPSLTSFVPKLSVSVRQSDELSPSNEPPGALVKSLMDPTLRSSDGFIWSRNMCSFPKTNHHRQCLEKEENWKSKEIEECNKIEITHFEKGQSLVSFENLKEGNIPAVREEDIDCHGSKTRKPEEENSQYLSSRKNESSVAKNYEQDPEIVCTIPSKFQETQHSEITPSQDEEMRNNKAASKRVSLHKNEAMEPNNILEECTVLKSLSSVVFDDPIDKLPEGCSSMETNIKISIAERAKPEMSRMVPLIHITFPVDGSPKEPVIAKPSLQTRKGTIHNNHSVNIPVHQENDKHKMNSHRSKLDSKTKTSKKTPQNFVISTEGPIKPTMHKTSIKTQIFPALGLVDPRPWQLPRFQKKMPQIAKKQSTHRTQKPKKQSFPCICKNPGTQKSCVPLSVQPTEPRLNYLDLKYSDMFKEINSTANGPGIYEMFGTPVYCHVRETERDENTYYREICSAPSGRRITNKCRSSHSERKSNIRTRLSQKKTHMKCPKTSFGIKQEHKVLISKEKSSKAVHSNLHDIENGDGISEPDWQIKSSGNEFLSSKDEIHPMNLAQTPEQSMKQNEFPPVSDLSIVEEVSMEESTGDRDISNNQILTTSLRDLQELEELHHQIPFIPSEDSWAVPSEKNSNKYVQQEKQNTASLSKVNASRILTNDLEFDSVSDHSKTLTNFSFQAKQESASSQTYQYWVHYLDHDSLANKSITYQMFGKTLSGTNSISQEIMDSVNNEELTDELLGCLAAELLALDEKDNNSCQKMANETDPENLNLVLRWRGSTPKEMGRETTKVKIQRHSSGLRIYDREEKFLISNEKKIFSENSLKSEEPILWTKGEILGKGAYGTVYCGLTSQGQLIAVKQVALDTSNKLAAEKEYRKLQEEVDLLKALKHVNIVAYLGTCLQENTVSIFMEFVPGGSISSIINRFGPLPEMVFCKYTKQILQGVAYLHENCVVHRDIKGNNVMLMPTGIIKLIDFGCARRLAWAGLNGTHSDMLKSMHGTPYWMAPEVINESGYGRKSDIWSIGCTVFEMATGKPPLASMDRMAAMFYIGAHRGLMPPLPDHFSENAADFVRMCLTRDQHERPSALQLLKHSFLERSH

[4] = target: T4, PAK1 (Homo sapiens, UniProt Q13153)
T4 construct: purchased Eurofins DiscoverX KINOMEscan

[5] = target: T5, BLK (Homo sapiens, UniProt P51451)
T5 construct: purchased Eurofins DiscoverX KINOMEscan

[6] = target: T6, GRK4 (Homo sapiens, UniProt P32298)
T6 construct: purchased Eurofins DiscoverX KINOMEscan

[7] = target: T7, CLK1 (Homo sapiens, UniProt P49759)
T7 construct: purchased Eurofins DiscoverX KINOMEscan
T7 sequence (P49759 whole entry): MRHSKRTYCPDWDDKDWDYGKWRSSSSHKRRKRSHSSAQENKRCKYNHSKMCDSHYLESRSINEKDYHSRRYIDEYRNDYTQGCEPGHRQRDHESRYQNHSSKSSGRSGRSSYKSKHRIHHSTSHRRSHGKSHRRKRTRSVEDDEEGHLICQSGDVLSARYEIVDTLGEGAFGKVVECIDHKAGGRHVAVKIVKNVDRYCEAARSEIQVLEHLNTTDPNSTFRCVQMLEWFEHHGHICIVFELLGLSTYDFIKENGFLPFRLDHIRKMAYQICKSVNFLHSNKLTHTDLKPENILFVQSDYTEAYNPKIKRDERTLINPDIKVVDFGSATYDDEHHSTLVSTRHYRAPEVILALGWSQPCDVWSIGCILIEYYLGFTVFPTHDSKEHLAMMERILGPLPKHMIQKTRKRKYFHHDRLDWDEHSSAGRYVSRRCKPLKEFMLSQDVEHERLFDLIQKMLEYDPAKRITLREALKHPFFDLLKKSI

T6 sequence (P32298 whole entry): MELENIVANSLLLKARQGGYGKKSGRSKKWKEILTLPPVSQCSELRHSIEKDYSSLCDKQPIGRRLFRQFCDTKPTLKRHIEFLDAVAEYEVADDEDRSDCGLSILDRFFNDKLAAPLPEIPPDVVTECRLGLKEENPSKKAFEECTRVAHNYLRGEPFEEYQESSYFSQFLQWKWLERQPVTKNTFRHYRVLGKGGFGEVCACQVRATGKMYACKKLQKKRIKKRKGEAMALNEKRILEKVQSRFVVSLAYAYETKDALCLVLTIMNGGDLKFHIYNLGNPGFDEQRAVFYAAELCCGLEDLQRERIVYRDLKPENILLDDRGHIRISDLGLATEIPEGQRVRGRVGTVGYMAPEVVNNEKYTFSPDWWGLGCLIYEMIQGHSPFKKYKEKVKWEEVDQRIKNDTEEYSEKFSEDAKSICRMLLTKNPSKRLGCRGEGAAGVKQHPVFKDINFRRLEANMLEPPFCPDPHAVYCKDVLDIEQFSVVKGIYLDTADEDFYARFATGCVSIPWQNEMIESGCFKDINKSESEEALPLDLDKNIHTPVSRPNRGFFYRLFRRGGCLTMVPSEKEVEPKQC
T4 sequence (Q13153 whole entry): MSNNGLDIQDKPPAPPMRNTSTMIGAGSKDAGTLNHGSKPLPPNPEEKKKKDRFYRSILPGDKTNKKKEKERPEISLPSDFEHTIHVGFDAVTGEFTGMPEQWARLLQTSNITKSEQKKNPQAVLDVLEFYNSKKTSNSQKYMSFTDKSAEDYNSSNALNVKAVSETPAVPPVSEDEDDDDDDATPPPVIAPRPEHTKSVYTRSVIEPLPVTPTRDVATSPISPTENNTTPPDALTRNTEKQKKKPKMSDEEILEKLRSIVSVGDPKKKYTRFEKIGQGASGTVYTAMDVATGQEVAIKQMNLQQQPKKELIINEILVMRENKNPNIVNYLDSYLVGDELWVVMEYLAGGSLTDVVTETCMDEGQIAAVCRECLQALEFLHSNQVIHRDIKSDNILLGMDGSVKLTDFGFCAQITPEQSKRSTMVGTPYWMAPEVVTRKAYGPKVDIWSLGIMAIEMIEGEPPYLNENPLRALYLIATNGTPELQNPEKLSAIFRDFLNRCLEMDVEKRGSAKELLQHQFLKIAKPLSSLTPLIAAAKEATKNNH
T1 sequence (P08922 28-2347): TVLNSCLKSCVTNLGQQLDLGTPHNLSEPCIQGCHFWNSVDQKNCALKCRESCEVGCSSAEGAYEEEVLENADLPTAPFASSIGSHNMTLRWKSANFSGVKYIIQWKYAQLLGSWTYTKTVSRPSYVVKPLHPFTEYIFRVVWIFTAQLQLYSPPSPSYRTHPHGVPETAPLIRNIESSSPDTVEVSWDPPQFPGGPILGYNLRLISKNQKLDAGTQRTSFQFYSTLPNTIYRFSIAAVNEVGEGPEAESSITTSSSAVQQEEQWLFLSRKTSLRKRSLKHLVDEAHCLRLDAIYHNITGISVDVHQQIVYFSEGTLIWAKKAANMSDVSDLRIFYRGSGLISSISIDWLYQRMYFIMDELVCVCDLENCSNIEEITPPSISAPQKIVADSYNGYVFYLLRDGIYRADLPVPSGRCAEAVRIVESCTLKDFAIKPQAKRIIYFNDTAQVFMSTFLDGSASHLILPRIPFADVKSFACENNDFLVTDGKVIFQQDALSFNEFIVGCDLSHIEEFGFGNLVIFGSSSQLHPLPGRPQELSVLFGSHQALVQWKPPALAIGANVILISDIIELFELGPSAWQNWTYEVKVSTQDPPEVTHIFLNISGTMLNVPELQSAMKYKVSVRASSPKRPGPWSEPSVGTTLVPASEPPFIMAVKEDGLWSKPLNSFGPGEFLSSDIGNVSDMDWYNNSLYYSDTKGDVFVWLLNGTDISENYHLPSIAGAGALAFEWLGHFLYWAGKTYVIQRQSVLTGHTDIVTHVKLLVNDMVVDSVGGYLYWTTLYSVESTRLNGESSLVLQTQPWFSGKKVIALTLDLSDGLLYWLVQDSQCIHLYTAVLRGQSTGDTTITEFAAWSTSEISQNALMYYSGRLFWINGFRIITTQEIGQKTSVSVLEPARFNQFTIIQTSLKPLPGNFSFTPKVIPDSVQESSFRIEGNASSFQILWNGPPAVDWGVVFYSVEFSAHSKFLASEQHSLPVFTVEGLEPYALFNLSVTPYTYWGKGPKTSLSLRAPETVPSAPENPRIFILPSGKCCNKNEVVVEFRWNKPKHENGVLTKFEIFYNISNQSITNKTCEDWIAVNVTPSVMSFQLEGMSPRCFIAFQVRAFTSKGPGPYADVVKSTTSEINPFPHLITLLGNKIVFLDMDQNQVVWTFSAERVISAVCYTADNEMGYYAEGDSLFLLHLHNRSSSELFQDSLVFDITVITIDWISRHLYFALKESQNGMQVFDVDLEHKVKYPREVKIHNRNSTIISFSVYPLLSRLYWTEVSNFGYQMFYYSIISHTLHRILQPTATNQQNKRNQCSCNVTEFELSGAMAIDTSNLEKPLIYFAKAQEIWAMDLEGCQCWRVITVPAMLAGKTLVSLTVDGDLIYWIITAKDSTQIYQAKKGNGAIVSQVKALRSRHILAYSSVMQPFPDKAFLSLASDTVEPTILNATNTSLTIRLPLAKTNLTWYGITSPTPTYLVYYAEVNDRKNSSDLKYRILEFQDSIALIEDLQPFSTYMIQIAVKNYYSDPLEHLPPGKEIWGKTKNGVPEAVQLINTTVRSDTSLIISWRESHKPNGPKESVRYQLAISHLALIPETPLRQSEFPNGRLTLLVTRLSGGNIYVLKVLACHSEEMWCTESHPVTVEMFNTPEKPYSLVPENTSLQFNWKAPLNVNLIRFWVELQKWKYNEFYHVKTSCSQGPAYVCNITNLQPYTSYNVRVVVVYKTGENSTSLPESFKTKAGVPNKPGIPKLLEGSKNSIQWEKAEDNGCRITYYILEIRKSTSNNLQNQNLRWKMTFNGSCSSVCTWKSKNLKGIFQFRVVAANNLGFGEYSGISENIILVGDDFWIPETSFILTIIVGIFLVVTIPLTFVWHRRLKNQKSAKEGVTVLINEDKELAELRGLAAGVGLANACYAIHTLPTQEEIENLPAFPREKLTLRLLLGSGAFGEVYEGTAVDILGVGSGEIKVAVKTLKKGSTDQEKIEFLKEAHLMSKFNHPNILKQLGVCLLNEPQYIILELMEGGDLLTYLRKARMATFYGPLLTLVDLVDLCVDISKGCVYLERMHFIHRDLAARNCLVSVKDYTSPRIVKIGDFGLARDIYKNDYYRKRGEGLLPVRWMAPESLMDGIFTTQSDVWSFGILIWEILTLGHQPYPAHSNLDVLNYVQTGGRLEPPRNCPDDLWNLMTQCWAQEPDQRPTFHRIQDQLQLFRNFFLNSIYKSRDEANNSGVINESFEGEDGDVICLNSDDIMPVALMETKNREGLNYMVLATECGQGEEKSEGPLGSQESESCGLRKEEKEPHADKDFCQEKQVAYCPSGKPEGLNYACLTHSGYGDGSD
T5 sequence (P51451 whole entry): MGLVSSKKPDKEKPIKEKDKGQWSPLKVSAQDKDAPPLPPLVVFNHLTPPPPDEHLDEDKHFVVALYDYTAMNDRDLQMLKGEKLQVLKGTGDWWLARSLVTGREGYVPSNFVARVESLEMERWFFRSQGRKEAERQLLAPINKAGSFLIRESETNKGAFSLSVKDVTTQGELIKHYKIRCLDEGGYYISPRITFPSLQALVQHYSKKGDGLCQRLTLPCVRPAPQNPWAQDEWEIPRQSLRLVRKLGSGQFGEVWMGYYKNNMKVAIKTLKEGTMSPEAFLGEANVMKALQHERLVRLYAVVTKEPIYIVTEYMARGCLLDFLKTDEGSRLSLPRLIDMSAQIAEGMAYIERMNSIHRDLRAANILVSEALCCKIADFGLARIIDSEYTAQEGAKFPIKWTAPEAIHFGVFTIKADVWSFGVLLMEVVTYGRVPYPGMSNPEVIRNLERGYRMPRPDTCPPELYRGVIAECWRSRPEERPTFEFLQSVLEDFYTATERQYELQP

| Structure (SMILES) | remaining binding at 1 µM [1] [%] | remaining binding at 1 µM [2] [%] | remaining binding at 1 µM [3] [%] | remaining binding at 1 µM [4] [%] | remaining binding at 1 µM [5] [%] | remaining binding at 1 µM [6] [%] | remaining binding at 1 µM [7] [%] |
| --- | --- | --- | --- | --- | --- | --- | --- |
| CN1CCC(CNc2cc(Cl)nn3c(-c4cc5nc(Nc6ccccc6)[nH]c5cc4F)cnc23)CC1 [compound 31, 6-Chloro-3-(6-fluoro-2-(phenylamino)-1H-benzo[d]imidazol-5-yl)-N-((1-methylpiperidin-4-yl)methyl)imidazo[1,2-b]pyridazin-8-amine] | 96 | 96 | 77 | 89 | 79 | 100 | 16 |
| O=C(CN1CCOCC1)N[C@H]1CC[C@H](Nc2cc(Cl)nn3c(-c4ccc5[nH]ncc5c4)cnc23)CC1 [compound 26] | 100 | 94 | 23 | 99 | 95 | 79 | 1.2 |
| Clc1cc(NCC2CC2)c2ncc(-c3ccc4[nH]ncc4c3)n2n1 [compound 2, 6-Chloro-N-(cyclopropylmethyl)-3-(1H-indazol-5-yl)imidazo[1,2-b]pyridazin-8-amine] | 100 | 83 | 45 | 98 | 53 | 42 | 4 |
